Data reported in PubChem BioAssay (NCI).
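Values below derive from 48-hour exposures of cells grown in 96-well plates, with endpoints linearly interpolated between the two concentrations bracketing the appropriate inhibition level. TGI denotes the concentration required for complete inhibition of growth.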

Experiments:
Assay in all cases: NCI-60 cell line screen, 48 h
[1] = tested on: MOLT-4 leukemia
[2] = tested on: HS 578T breast
[3] = tested on: HCT-116 colon
[4] = tested on: HL-60(TB) leukemia
[5] = tested on: U251 CNS
[6] = tested on: OVCAR-8 ovarian
[7] = tested on: MDA-MB-231 breast
[8] = tested on: RXF 393 renal
[9] = tested on: T-47D breast
[10] = tested on: KM12 colon
[11] = tested on: PC-3 prostate
[12] = tested on: SF-268 CNS
[13] = tested on: RPMI-8226 leukemia
[14] = tested on: HT29 colon
[15] = tested on: NCI-H522 lung
[16] = tested on: UO-31 renal
[17] = tested on: HCC-2998 colon
[18] = tested on: SNB-19 CNS
[19] = tested on: BT-549 breast
[20] = tested on: MCF7 breast
[21] = tested on: MDA-MB-435
[22] = tested on: HCT-15 colon
[23] = tested on: SF-295 CNS
[24] = tested on: A498 renal
[25] = tested on: M14 melanoma
[26] = tested on: HOP-62 NSCLC
[27] = tested on: SNB-75 CNS
[28] = tested on: NCI-H460 lung
[29] = tested on: NCI-H226 lung
[30] = tested on: COLO 205 colon
[31] = tested on: CAKI-1 renal
[32] = tested on: A549 NSCLC
[33] = tested on: UACC-62 melanoma
[34] = tested on: ACHN renal
[35] = tested on: SN12C renal
[36] = tested on: SR leukemia
[37] = tested on: MALME-3M melanoma
[38] = tested on: CCRF-CEM leukemia
[39] = tested on: K-562 leukemia
[40] = tested on: SK-MEL-2 melanoma
[41] = tested on: HOP-92 NSCLC
[42] = tested on: IGROV1 ovarian
[43] = tested on: TK-10 renal
[44] = tested on: SK-MEL-28 melanoma
[45] = tested on: LOX IMVI melanoma
[46] = tested on: SK-OV-3 ovarian
[47] = tested on: OVCAR-4 ovarian
[48] = tested on: EKVX NSCLC
[49] = tested on: NCI-H23 lung
[50] = tested on: NCI/ADR-RES ovarian
[51] = tested on: UACC-257 melanoma
[52] = tested on: MDA-N
[53] = tested on: SK-MEL-5 melanoma
[54] = tested on: OVCAR-5 ovarian
[55] = tested on: SF-539 CNS
[56] = tested on: 786-0 renal
[57] = tested on: SW-620 colon
[58] = tested on: DU-145 prostate
[59] = tested on: OVCAR-3 ovarian

c1csc(-c2ccc(-c3ccsc3)s2)c1
TGI [1]: > 100 µM | TGI [2]: > 100 µM | TGI [3]: > 100 µM | TGI [4]: > 100 µM | TGI [5]: > 100 µM | TGI [6]: > 100 µM | TGI [7]: > 100 µM | TGI [8]: > 100 µM | TGI [9]: > 100 µM | TGI [10]: > 100 µM | TGI [11]: > 100 µM | TGI [12]: > 100 µM | TGI [13]: > 100 µM | TGI [14]: > 100 µM | TGI [15]: > 100 µM | TGI [16]: > 100 µM | TGI [17]: > 100 µM | TGI [18]: > 100 µM | TGI [19]: > 100 µM | TGI [20]: > 100 µM | TGI [21]: > 100 µM | TGI [22]: > 100 µM | TGI [23]: > 100 µM | TGI [24]: > 100 µM | TGI [25]: > 100 µM | TGI [26]: > 100 µM | TGI [27]: > 100 µM | TGI [28]: > 100 µM | TGI [29]: > 100 µM | TGI [30]: > 100 µM | TGI [31]: > 100 µM | TGI [32]: > 100 µM | TGI [33]: > 100 µM | TGI [34]: > 100 µM | TGI [35]: > 100 µM | TGI [36]: > 100 µM | TGI [37]: > 100 µM | TGI [38]: > 100 µM | TGI [39]: > 100 µM | TGI [40]: > 100 µM | TGI [41]: > 100 µM | TGI [42]: > 100 µM | TGI [43]: > 100 µM | TGI [44]: > 100 µM | TGI [45]: > 100 µM | TGI [46]: > 100 µM | TGI [47]: > 100 µM | TGI [48]: > 100 µM | TGI [49]: > 100 µM | TGI [50]: > 100 µM | TGI [51]: > 100 µM | TGI [52]: > 100 µM | TGI [53]: > 100 µM | TGI [54]: > 100 µM | TGI [55]: > 100 µM | TGI [56]: > 100 µM | TGI [57]: > 100 µM

CC1C2CC(CC2O)C1(C)C (stereo not drawn)
TGI [1]: > 100 µM | TGI [2]: > 100 µM | TGI [3]: > 100 µM | TGI [4]: > 100 µM | TGI [5]: > 100 µM | TGI [6]: > 100 µM | TGI [7]: > 100 µM | TGI [8]: > 100 µM | TGI [9]: > 100 µM | TGI [10]: > 100 µM | TGI [11]: > 100 µM | TGI [58]: > 100 µM | TGI [12]: > 100 µM | TGI [14]: > 100 µM | TGI [15]: > 100 µM | TGI [16]: > 100 µM | TGI [18]: > 100 µM | TGI [19]: > 100 µM | TGI [21]: > 100 µM | TGI [23]: > 100 µM | TGI [24]: > 100 µM | TGI [25]: > 100 µM | TGI [26]: > 100 µM | TGI [27]: > 100 µM | TGI [28]: > 100 µM | TGI [29]: > 100 µM | TGI [30]: > 100 µM | TGI [31]: > 100 µM | TGI [32]: > 100 µM | TGI [33]: > 100 µM | TGI [34]: > 100 µM | TGI [35]: > 100 µM | TGI [36]: > 100 µM | TGI [37]: > 100 µM | TGI [38]: > 100 µM | TGI [39]: > 100 µM | TGI [59]: > 100 µM | TGI [41]: > 100 µM | TGI [42]: > 100 µM | TGI [43]: > 100 µM | TGI [44]: > 100 µM | TGI [46]: > 100 µM | TGI [47]: > 100 µM | TGI [49]: > 100 µM | TGI [51]: > 100 µM | TGI [52]: > 100 µM | TGI [53]: > 100 µM | TGI [54]: > 100 µM | TGI [55]: > 100 µM | TGI [56]: > 100 µM | TGI [57]: > 100 µM

CCOC(=O)CCC(NC(=O)c1ccc(OCc2ccc3nc(OC)c(OC)nc3c2)cc1)C(=O)OCC (stereo not drawn)
TGI [1]: > 100 µM | TGI [2]: > 100 µM | TGI [3]: > 100 µM | TGI [4]: 73.5 µM | TGI [5]: > 100 µM | TGI [6]: > 100 µM | TGI [8]: 90.7 µM | TGI [9]: > 100 µM | TGI [10]: > 100 µM | TGI [11]: > 100 µM | TGI [58]: > 100 µM | TGI [12]: > 100 µM | TGI [13]: > 100 µM | TGI [14]: > 100 µM | TGI [15]: 64.8 µM | TGI [16]: > 100 µM | TGI [17]: > 100 µM | TGI [18]: > 100 µM | TGI [19]: > 100 µM | TGI [20]: > 100 µM | TGI [21]: 91.1 µM | TGI [22]: > 100 µM | TGI [23]: > 100 µM | TGI [24]: > 100 µM | TGI [25]: 96.8 µM | TGI [26]: > 100 µM | TGI [27]: > 100 µM | TGI [28]: > 100 µM | TGI [29]: > 100 µM | TGI [30]: 32.8 µM | TGI [31]: > 100 µM | TGI [32]: > 100 µM | TGI [33]: > 100 µM | TGI [34]: > 100 µM | TGI [35]: > 100 µM | TGI [36]: > 100 µM | TGI [37]: 69.2 µM | TGI [38]: 93.5 µM | TGI [39]: > 100 µM | TGI [59]: 49.9 µM | TGI [40]: 74.6 µM | TGI [41]: > 100 µM | TGI [42]: > 100 µM | TGI [43]: > 100 µM | TGI [44]: > 100 µM | TGI [45]: > 100 µM | TGI [46]: > 100 µM | TGI [49]: > 100 µM | TGI [51]: > 100 µM | TGI [52]: > 100 µM | TGI [53]: > 100 µM | TGI [54]: > 100 µM | TGI [55]: > 100 µM | TGI [56]: > 100 µM | TGI [57]: > 100 µM
